Converted amounts (≈) assume the structure as drawn.
How the values were obtained:
[1] = system: Mycobacterium tuberculosis; assay: Antimycobacterial activity against multidrug-resistant Mycobacterium tuberculosis 43 assessed as growth inhibition after 45 days by Lowenstein-Jensen method; type: functional
[2] = system: Mycobacterium tuberculosis; assay: Antimycobacterial activity against multidrug-resistant Mycobacterium tuberculosis 43 assessed as bacterial growth at 5 uM after 45 days by Lowenstein-Jensen method; type: functional

Structure (SMILES)	MIC [1]	Activity [2]
CC[C@H](CO)NC(=S)NC(=O)c1ccccc1O	7.46 µM (≈ 2 µg/mL)	
CC[C@H](CO)NC(=S)NC(=O)c1ccc(N(C)C)cc1	> 16.9 µM	100%
CC[C@H](CO)NC(=S)NC(=O)CCc1ccccc1	> 17.8 µM	100%
CC[C@H](CO)NC(=S)NC(=O)/C=C/c1ccccc1	> 18 µM	100%

Reference: ChEMBL document CHEMBL2375250, “Efficient synthesis of new (R)-2-amino-1-butanol derived ureas, thioureas and acylthioureas and in vitro evaluation of their antimycobacterial activity” (Eur J Med Chem, 2013)
